From ChEMBL document CHEMBL1201862, “PubChem BioAssay data set” (2004)
Active and inactive are the calls of the source.

Key:
Trypsin = Trypsin (Sus scrofa, UniProt P00761); test: trypsin protease activity blockade – biochemical, quenched peptide fluorescence, cherry-pick, selectivity assay for Rce1 protease inhibitor project, dose response (AID 488789)
Bcl-2-like protein 10 = Bcl-2-like protein 10 (Homo sapiens, UniProt Q9HD36); test: Bcl-B/TR3 peptide binding disruption – biochemical, fluorescence polarization, FITC-TR3 peptide, selectivity assay for Bfl-1 inhibitor project, primary screen (AID 748);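 further: fluorescence polarization from a fluorescein-labelled TR3 peptide binding purified Bcl-B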
cells = format: functional, cell-based; conditions: PPC-1
MDA-MB-435 = test: cells; format: functional, cell-based; conditions: Homo sapiens
[1] = molecular target: NACHT, LRR and PYD domains-containing protein 3 (Homo sapiens, UniProt Q96P20); test: NALP3 inhibitors in yeast, dose response, luminescent (AID 488799); format: functional
SUMO-activating enzyme [2] = molecular target: T1, SUMO-activating enzyme (Homo sapiens, UniProt Q9UBT2); test: blockers of SAE1/SAE2–UBC9 SUMO transfer – biochemical, HTRF, uHTS, primary screen (AID 2006); format: protein-complex assay
[3] = viability of HCT116 lacking mutant beta-catenin – cell-based, human colon tumor, dose response (AID 1045); format: functional;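 further: HCT116 colon tumor cells with beta catenin knocked out; cells exposed to compound for 60 hours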
SUMO-activating enzyme [4] = molecular target: T1, SUMO-activating enzyme; test: blockers of UBC9-mediated SUMO conjugation – biochemical, AlphaScreen, SUMOylation inhibitor project, confirmation (AID 2018); format: functional
[5] = viability of PTEN-deleted HCT116 cells – cell-based, HCT116 PTEN knockout, dose response (AID 1047); format: functional;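 further: HCT116 colon tumor cells with PTEN knocked out; cells exposed to compound for 60 hours before readout; potency for loss of cell viability measured by luminescence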

T1 sequence (Q9UBE0 whole entry): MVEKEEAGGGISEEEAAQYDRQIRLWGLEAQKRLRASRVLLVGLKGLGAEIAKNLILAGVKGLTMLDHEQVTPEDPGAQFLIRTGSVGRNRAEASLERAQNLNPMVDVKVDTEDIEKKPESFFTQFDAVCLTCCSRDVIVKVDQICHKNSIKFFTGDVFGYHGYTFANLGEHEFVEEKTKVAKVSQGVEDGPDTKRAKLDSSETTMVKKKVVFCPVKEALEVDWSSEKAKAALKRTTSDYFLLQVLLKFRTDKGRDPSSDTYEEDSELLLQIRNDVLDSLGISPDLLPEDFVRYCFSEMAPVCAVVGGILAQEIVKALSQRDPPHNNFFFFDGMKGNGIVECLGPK
T1 sequence (Q9UBT2 whole entry): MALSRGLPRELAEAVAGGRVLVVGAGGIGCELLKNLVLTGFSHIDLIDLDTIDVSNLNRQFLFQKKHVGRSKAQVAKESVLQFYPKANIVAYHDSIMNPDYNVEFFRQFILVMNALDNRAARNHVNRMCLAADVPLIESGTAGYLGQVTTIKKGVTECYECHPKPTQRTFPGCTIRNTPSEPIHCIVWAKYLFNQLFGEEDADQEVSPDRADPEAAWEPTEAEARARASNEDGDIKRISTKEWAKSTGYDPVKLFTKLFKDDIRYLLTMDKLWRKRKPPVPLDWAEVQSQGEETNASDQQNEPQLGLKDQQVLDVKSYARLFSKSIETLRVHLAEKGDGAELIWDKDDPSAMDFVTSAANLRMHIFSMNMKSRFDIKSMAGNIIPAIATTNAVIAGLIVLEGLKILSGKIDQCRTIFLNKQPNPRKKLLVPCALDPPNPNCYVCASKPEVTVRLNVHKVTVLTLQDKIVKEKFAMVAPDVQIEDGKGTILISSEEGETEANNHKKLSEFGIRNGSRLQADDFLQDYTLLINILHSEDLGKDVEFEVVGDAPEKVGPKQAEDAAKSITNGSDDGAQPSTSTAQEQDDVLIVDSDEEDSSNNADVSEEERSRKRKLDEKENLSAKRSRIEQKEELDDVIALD
Sequence of Trypsin (P00761 whole entry): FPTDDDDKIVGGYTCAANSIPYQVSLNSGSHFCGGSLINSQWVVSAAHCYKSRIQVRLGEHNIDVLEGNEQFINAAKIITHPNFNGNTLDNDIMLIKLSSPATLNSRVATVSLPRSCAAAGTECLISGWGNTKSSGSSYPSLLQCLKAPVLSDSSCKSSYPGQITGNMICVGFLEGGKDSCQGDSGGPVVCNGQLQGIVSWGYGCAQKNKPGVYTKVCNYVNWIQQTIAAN
Sequence of Bcl-2-like protein 10 (Q9HD36 whole entry): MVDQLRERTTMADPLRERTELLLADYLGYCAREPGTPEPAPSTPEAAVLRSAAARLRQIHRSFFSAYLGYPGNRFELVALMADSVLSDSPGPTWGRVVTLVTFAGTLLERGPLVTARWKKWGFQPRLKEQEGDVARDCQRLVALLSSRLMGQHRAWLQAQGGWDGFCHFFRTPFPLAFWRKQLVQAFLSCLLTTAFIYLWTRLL
Sequence of NACHT, LRR and PYD domains-containing protein 3 (Q96P20 whole entry, the tested form may be a part): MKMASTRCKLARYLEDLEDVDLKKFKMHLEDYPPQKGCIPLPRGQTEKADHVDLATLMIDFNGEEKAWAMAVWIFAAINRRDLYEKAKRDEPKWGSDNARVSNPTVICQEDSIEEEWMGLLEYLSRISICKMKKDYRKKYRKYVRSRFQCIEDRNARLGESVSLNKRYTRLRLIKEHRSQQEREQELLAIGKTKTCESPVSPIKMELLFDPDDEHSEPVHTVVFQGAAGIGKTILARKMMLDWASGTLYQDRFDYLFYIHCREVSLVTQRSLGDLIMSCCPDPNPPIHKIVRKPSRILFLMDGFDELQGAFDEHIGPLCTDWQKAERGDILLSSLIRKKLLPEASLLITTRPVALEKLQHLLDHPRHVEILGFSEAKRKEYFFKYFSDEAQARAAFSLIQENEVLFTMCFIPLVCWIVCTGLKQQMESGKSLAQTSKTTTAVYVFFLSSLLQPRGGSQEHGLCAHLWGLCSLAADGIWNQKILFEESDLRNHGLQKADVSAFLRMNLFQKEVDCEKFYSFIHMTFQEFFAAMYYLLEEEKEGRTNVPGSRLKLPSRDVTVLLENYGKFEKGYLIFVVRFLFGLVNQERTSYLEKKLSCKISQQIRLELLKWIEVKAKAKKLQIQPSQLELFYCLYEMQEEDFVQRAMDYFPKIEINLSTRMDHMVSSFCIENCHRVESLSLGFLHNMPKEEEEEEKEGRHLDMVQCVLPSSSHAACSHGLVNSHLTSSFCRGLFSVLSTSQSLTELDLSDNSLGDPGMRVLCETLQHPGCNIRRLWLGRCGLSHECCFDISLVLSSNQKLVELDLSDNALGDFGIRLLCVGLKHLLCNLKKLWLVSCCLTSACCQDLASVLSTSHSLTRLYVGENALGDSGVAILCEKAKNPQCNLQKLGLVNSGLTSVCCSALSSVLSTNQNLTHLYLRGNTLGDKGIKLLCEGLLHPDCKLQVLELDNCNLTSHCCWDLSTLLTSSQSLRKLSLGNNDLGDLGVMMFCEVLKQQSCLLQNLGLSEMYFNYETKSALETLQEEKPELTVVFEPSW

For `CSC[C@H](NC(=O)COc1cc2c(c3oc(=O)cc(C)c13)CCC(C)(C)O2)C(=O)O`, the AC50 (Trypsin) was 12 µM (active).

With `c1ccc(-c2nn3c(Cn4nnc5ccccc54)nnc3s2)nc1` the IC50 (Bcl-2-like protein 10) was 34.6 µM (active).

For `CCSc1cc(N2CCCC2)nc(-c2ccc(Cl)cc2)n1`, the IC50 (cells) was > 10 µM (inactive) and the IC50 (MDA-MB-435) was > 10 µM (inactive).

For `O=C(Nc1scc(-c2ccccc2)c1C(=O)O)c1ccc(F)cc1`, the IC50 [1] was 10.3 µM (active).

With `O=C(/C=C/c1ccco1)NC(=S)Nc1cc(-c2nc3ccccc3s2)ccc1Cl` the IC50 (SUMO-activating enzyme [2]) was 26 µM (active), the EC50 [3] was 7.24 µM (active) and the IC50 (SUMO-activating enzyme [4]) was 7.42 µM (active). For the same molecule, the EC50 [5] was 7.86 µM (active).
